“And” between values parts separate entries of the source, which are not always exact repeats. Equal entries are not always repeated. Where a SMILES comes first, the peptide text is derived from it. [ ]: non-standard residue; d: D form.
System: pituitary
Test: In vitro growth hormone release study (incubated rat pituitaries, GH radioimmunoassay)
Type: cell-based
Conditions: pituitaries of 20 day old female rats, ΔGH (I3-P2),(I4-P2), ± SEM
Procedure: Female rats of the CD-1 strain were housed in a constant temperature room at 24° C. with 14 hours light and 10 hours darkness. The rats were fed Purina brand rat chow ab libitum.
All studies were started between 0800 and 1000 hours.
Pituitaries were removed from 20 day old female rats. Two pituitaries were incubated at 36° C. in 1 ml of lactated Ringer's solution in 10 ml polytetrafluoroethylene beakers in a Dubnoff Shaker (90 cycles/min.). The pituitaries were incubated a total of 4 hours (P1, P2, I3, and I4). After two successive one hour preincubation periods (P1, P2), the peptide was added to the incubation medium hourly for 2 hours (I3, I4).
This in vitro study was performed in triplicate and a standard radioimmunoassay of growth hormone present in the incubation medium was performed in duplicate. The hormonal activity was calculated as the difference (Δ) of growth hormone (GH) levels between I3, I4 and P2, i.e., (I3 -P2) and (I4 -P2). P values were calculated by Students' t test using six growth hormone values for each value recorded.
The growth hormone radioimmunoassay reagents were distributed by the National Institute of Arthritis and […] (NIAMDD) program. The growth hormone values were calculated in terms of nanograms (ng) of a rat standard with a growth hormone potency of 0.61 units/mg.

CSCC[C@H](NC(=O)[C@H](CCCCN)NC(=O)[C@@H](Cc1ccccc1)NC(=O)[C@@H](Cc1ccccc1)NC(=O)[C@@H](N)Cc1c[nH]c2ccccc12)C(N)=O [H2 N--Trp--D-Phe--D-Phe--Lys--Met--CONH2, H2 N-Trp-D-Phe-D-Phe-Lys-Met-CONH2] (H-W[dF][dF]KM-NH2)
IN VITRO GROWTH HORMONE RELEASE (0.3μg peptide): 24 ± 24 ngΔGH/ml incubation medium
IN VITRO GROWTH HORMONE RELEASE (10μg peptide): 853 ± 138 ngΔGH/ml incubation medium and 440 ± 180 ngΔGH/ml incubation medium

Source: patent US4228155A, “Synthetic peptides having pituitary growth hormone releasing activity” (Beckman Instruments, Inc., priority 1979, dated 1980)
